# Source: patent US20240360165A1, “INHIBITORS OF CYCLIN DEPENDENT KINASE 7 (CDK7)” (Syros Pharmaceuticals, Inc., priority 2016, published 2024)
# Like-named read-outs stand apart in the source and are kept apart here.
# Assays:
# [1] = target: CDK7/Cyclin H/MAT1 complex (Homo sapiens, UniProt P50613); assay: CDK7 inhibition assay (Caliper/LabChip EZ Reader kinase assay); assay type: biochemical; details: Table 1; CDK7/Cyclin H/MAT1 6 nM, ATP 2 mM, 35 min at 27° C.
# How it was run: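 A Perkin Elmer Caliper/LabChip EZ Reader (Waltham, MA) platform served as the basis for this CDK7 kinase inhibition assay. The work was carried out by Biortus Biosciences, located in Jiangyin, Jiangsu Province, P.R. of China. Each CDK studied had its own kinase assay, and compounds were evaluated for their ability to block CDK7 activity.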
# [2] = target: CDK2/Cyclin E1 complex (Homo sapiens, UniProt P24941); assay: CDK2 inhibition assay (Caliper/LabChip EZ Reader kinase assay); assay type: biochemical; details: Table 1; CDK2/Cyclin E1 0.5 nM, ATP 2 mM, 35 min at 27° C.
# How it was run: (§1)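 Caliper/LabChip EZ Reader mobility-shift assays. CDK9/Cyclin T1 at 8 nM with 2 μM 5-FAM-CDK9tide peptide and 10 mM MgCl2; CDK2/Cyclin E1 at 0.5 nM with 2 μM 5-FAM-CDK7tide and 2 mM MgCl2.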
# [3] = tested on: HCC70 cells; assay: Inhibition of proliferation of HCC70 cells (CyQUANT Direct Cell Proliferation Assay, 72 hour); assay type: cell-based, human; details: read-out: Inhibition of Proliferation of HCC70 Cells (calculated IC50)
# Description: HCC70 cells are a cell line derived from human triple negative breast cancer. […] Known CDK inhibitors dinaciclib or N-((1S,3R)-3-((5-chloro-4-(1H-indol-3-yl) pyrimidin-2-yl)amino)cyclohexyl)-5-((E)-4-(dimethylamino)but-2-enamido)picolinamide and triptolide were used as positive controls. […] The cells were cultured at 37° C. in a humidified chamber in the presence of 5% CO2. Proliferation assays were conducted over a 72 hour time period. CyQUANT® Direct Cell Proliferation Assay (Life Technologies, Chicago, IL USA) was used to assess the anti-proliferative effects of the compounds following manufacturer's directions and utilizing the reagents supplied with the CyQUANT® Direct Cell kit.
# [4] = target: CDK9/Cyclin T1 complex (Homo sapiens, UniProt P50750); assay: CDK9 inhibition assay (Caliper/LabChip EZ Reader kinase assay); assay type: biochemical; details: Table 1; CDK9/Cyclin T1 8 nM, ATP 2 mM, 15 min at 27° C.
# CDK9/Cyclin T1 complex, sequence (P50750 whole entry, species assumed): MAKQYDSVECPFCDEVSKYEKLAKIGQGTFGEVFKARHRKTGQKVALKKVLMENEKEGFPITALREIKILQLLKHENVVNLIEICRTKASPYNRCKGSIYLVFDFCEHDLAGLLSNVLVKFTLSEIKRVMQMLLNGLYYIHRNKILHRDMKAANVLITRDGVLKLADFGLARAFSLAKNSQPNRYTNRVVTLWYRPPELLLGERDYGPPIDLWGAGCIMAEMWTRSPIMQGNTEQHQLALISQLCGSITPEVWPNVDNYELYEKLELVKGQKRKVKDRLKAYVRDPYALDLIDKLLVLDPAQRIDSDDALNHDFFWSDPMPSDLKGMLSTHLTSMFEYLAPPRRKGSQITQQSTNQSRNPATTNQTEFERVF
# CDK9/Cyclin T1 complex, sequence (O60563 whole entry partner, species assumed): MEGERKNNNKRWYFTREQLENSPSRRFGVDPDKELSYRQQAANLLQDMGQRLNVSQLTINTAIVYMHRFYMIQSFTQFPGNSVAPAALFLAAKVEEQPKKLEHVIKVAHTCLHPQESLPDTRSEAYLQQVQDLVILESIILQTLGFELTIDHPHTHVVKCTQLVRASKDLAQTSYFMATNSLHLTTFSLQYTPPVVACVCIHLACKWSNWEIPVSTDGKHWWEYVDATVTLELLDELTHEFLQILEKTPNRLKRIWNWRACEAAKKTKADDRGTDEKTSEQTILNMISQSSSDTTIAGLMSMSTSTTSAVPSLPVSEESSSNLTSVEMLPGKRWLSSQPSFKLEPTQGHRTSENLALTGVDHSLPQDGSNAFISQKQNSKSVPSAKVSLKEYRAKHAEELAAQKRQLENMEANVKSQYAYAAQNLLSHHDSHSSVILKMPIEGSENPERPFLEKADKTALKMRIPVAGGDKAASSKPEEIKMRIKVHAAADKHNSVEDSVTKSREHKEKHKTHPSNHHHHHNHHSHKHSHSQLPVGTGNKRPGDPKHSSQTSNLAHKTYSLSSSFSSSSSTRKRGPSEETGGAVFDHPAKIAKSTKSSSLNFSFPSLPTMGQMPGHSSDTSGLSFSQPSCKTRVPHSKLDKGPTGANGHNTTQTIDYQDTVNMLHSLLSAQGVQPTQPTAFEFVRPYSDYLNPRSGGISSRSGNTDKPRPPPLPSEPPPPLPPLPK
# How it was run: as §1
# [5] = target: T1, CDK12 (aa686-1082)/Cyclin K complex (Homo sapiens, UniProt Q9NYV4); assay: CDK12 inhibition assay (Caliper/LabChip EZ Reader kinase assay); assay type: biochemical; details: Table 1; CDK12 (aa686-1082)/Cyclin K 50 nM, ATP 2 mM, 3 hr at 27° C.
# T1 construct: CDK12 (aa686-1082)/Cyclin K complex
# T1 sequence (Q9NYV4 686-1082, species assumed): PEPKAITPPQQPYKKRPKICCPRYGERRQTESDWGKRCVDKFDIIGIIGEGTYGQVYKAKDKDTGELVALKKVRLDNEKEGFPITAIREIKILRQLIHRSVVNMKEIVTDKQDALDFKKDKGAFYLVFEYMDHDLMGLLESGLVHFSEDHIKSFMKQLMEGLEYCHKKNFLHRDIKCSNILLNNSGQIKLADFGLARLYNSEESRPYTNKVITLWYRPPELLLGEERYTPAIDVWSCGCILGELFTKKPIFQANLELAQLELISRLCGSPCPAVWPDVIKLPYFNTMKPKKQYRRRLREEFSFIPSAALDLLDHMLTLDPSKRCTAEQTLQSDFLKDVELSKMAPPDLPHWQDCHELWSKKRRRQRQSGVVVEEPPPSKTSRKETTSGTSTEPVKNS
# T1 sequence (O75909 whole entry partner, species assumed, the tested form may be a part): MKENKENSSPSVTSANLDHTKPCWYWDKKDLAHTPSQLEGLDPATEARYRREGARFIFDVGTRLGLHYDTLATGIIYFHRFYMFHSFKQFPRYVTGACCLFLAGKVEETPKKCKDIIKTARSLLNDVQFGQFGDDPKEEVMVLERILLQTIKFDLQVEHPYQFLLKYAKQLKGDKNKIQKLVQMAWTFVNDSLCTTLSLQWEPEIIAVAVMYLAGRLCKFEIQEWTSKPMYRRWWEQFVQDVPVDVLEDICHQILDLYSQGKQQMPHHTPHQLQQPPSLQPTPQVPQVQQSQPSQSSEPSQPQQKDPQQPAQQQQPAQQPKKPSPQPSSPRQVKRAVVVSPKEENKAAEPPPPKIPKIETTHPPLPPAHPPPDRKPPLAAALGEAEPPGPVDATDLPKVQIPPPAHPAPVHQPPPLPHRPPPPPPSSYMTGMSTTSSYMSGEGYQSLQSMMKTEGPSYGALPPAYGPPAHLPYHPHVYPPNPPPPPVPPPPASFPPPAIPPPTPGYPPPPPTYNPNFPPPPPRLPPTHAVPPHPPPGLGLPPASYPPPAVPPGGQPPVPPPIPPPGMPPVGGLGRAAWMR
# CDK7/Cyclin H/MAT1 complex, sequence (P50613 whole entry, species assumed): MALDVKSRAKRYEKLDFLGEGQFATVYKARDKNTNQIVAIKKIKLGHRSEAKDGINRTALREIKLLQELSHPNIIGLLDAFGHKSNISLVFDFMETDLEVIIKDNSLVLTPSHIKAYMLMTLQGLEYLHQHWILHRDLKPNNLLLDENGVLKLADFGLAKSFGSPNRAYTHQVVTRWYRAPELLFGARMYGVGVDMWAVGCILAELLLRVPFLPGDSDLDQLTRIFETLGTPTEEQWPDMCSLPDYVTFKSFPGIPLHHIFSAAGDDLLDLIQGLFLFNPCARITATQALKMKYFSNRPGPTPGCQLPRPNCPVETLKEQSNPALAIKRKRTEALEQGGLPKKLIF
# CDK7/Cyclin H/MAT1 complex, sequence (P51946 whole entry partner, species assumed): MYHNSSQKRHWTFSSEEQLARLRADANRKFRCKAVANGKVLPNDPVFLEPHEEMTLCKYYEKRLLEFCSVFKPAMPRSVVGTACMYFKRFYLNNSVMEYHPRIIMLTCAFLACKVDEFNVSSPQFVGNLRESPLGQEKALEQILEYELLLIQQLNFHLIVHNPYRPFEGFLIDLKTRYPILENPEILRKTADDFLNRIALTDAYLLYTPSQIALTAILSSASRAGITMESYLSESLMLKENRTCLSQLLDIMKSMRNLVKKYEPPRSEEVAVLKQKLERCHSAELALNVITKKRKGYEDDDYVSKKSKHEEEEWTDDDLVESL
# CDK7/Cyclin H/MAT1 complex, sequence (P51948 whole entry partner, species assumed): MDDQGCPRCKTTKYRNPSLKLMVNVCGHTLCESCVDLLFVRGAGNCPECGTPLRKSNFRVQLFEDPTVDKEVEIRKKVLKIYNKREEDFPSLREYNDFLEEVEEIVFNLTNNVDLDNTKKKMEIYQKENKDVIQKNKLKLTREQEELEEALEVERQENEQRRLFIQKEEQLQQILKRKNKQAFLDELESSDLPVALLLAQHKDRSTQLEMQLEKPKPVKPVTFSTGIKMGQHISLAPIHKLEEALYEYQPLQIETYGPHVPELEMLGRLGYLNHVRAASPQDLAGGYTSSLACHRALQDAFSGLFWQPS
SMILES,IC50 [1],IC50 [2],IC50 [4],IC50 [5],"IC50 ([3]; Homo sapiens, HCC70, 72 h)",IC50 [3]
"CCc1cnc(N[C@H]2CCCNC2)nc1-c1c[nH]c2c(F)c(C#N)ccc12 [Compound 360, 3-[5-ethyl-2-[[(3S)-3-piperidyl]amino]pyrimidin-4-yl]-7-fluoro-1H-indole-6-carbonitrile]",0.02 to 0.2 µM,> 5 µM,> 5 µM,> 5 µM,1 to 5 µM,–
"FC(F)Sc1ccc2c(-c3nc(N[C@H]4CCCNC4)ncc3C(F)(F)F)c[nH]c2c1 [Compound 374, 4-[6-(difluoromethylsulfanyl)-1H-indol-3-yl]-N-[(3S)-3-piperidyl]-5-(trifluoromethyl) pyrimidin-2-amine]",< 0.02 µM,0.2 to 5 µM,0.2 to 5 µM,0.02 to 0.2 µM,< 0.1 µM,–
"N#Cc1ccc2c(-c3nc(N[C@H]4CCCNC4)ncc3SC(F)F)c[nH]c2c1 [Compound 361, 3-[5-(difluoromethylsulfanyl)-2-[[(3S)-3-piperidyl]amino]pyrimidin-4-yl]-1H-indole-6-carbonitrile]",0.02 to 0.2 µM,> 5 µM,0.2 to 5 µM,0.2 to 5 µM,0.1 to 1 µM,–
CN(C)S(=O)(=O)c1cccc2c(-c3nc(NC4CCCNC4)ncc3C(F)(F)F)c[nH]c12 (centres unmarked) [Compound 371],< 0.02 µM,0.2 to 5 µM,0.2 to 5 µM,0.2 to 5 µM,< 0.1 µM,–
"CP(C)(=O)c1cccc2c(-c3nc(N[C@H]4CCCNC4)ncc3C(F)(F)F)c[nH]c12 (single isomer, unassigned) [Compound 353]",< 0.02 µM,0.2 to 5 µM,> 5 µM,0.2 to 5 µM,< 0.1 µM,–
"O=S(=O)(CF)c1ccc2c(-c3nc(N[C@H]4CCCNC4)ncc3C(F)(F)F)c[nH]c2c1 [Compound 365, 4-[6-(fluoromethylsulfonyl)-1H-indol-3-yl]-N-[(3S)-3-piperidyl]-5-(trifluoromethyl)pyrimidin-2-amine]",< 0.02 µM,0.2 to 5 µM,0.2 to 5 µM,0.2 to 5 µM,0.1 to 1 µM,–
"O=C(c1ccc2c(-c3nc(N[C@H]4CCCNC4)ncc3C(F)(F)F)c[nH]c2c1)N1CC[C@](O)(C(F)(F)F)C1 (single isomer, unassigned) [Compound 299]",< 0.02 µM,0.2 to 5 µM,0.2 to 5 µM,0.2 to 5 µM,1 to 5 µM,–
CCN1CCC[C@H](Nc2ncc(C(F)(F)F)c(-c3c[nH]c4cc(S(C)(=O)=O)ccc34)n2)C1 [Compound 298],< 0.02 µM,0.2 to 5 µM,> 5 µM,0.2 to 5 µM,0.1 to 1 µM,–
N#Cc1ccc2c(-c3nc(N[C@@H]4CNCC[C@H]4O)ncc3C(F)(F)F)c[nH]c2c1 [Compound 355],0.02 to 0.2 µM,> 5 µM,> 5 µM,0.2 to 5 µM,0.1 to 1 µM,–
"[O-][S+](c1ccc2c(-c3nc(N[C@H]4CCCNC4)ncc3C(F)(F)F)c[nH]c2c1)C(F)F (stereo partly drawn) [Compound 380, 4-[6-(difluoromethylsulfinyl)-1H-indol-3-yl]-N-[(3S)-3-piperidyl]-5-(trifluoromethyl) pyrimidin-2-amine]",< 0.02 µM,0.2 to 5 µM,0.2 to 5 µM,0.2 to 5 µM,< 0.1 µM,–
"CC[C@]1(O)CCN(C(=O)c2ccc3c(-c4nc(N[C@H]5CCCNC5)ncc4C(F)(F)F)c[nH]c3c2)C1 (single isomer, unassigned) [Compound 347]",0.02 to 0.2 µM,> 5 µM,> 5 µM,0.2 to 5 µM,0.1 to 1 µM,–
Cc1noc([C@H]2CC[C@H](Nc3ncc(C(F)(F)F)c(-c4c[nH]c5cc(C#N)ccc45)n3)CN2)n1 [Compound 358],0.02 to 0.2 µM,> 5 µM,> 5 µM,> 5 µM,0.1 to 1 µM,–
"CC[C@@]1(O)CCN(C(=O)c2ccc3c(-c4nc(N[C@H]5CCCNC5)ncc4C(F)(F)F)c[nH]c3c2)C1 (single isomer, unassigned) [Compound 309]",0.02 to 0.2 µM,> 5 µM,> 5 µM,0.2 to 5 µM,1 to 5 µM,–
"CCCc1cnc(N[C@H]2CCCNC2)nc1-c1c[nH]c2c(S(C)(=O)=O)c(C#N)ccc12 [Compound 367, 7-methylsulfonyl-3-[2-[[(3S)-3-piperidyl]amino]-5-propyl-pyrimidin-4-yl]-1H-indole-6-carbonitrile]",0.02 to 0.2 µM,> 5 µM,> 5 µM,> 5 µM,1 to 5 µM,–
"O=S(=O)(c1ccc2c(-c3nc(N[C@H]4CCCNC4)ncc3C(F)(F)F)c[nH]c2c1)C(F)F [Compound 375, 4-[6-(difluoromethylsulfonyl)-1H-indol-3-yl]-N-[(3S)-3-piperidyl]-5-(trifluoromethyl)pyrimidin-2-amine]",< 0.02 µM,0.2 to 5 µM,0.2 to 5 µM,0.2 to 5 µM,0.1 to 1 µM,–
CO[C@H]1CCN(C(=O)c2ccc3c(-c4nc(N[C@H]5CCCNC5)ncc4C(F)(F)F)c[nH]c3c2)C1 [Compound 280],0.02 to 0.2 µM,> 5 µM,> 5 µM,0.2 to 5 µM,–,0.1 to 1 µM
"CC(C)S(=O)(=O)c1ccc2c(-c3nc(N[C@H]4CCCNC4)ncc3C(F)(F)F)c[nH]c2c1 [Compound 346, 4-(6-isopropylsulfonyl-1H-indol-3-yl)-N-[(3S)-3-piperidyl]-5-(trifluoromethyl) pyrimidin-2-amine]",0.02 to 0.2 µM,0.2 to 5 µM,0.2 to 5 µM,0.2 to 5 µM,0.1 to 1 µM,–

# Now from value to compound, other results behind:
IC50 [1],IC50 [2],IC50 [4],IC50 [5],SMILES,"IC50 ([3]; Homo sapiens, HCC70, 72 h)",IC50 [3]
< 0.02 µM,0.2 to 5 µM,0.2 to 5 µM,0.2 to 5 µM,OCc1cncc(-c2ccc3c(-c4nc(N[C@H]5CCCNC5)ncc4C(F)(F)F)c[nH]c3c2)c1 [Compound 318],–,0.1 to 1 µM
< 0.02 µM,0.2 to 5 µM,0.2 to 5 µM,0.2 to 5 µM,FC(F)(F)c1cnc(N[C@H]2CCCNC2)nc1-c1c[nH]c2cc(-c3nccs3)ccc12 [Compound 332],–,< 0.1 µM
0.02 to 0.2 µM,0.2 to 5 µM,> 5 µM,0.2 to 5 µM,FC(F)(F)c1cnc(N[C@H]2CCCNC2)nc1-c1c[nH]c2cc(-c3cccc4cnccc34)ccc12 [Compound 344],–,0.1 to 1 µM
0.02 to 0.2 µM,> 5 µM,> 5 µM,0.2 to 5 µM,FC(F)(F)c1cnc(N[C@H]2CCCNC2)nc1-c1c[nH]c2cc(-c3ccnc4ccccc34)ccc12 [Compound 339],–,1 to 5 µM
< 0.02 µM,0.2 to 5 µM,> 5 µM,0.2 to 5 µM,OCc1ncccc1-c1ccc2c(-c3nc(N[C@H]4CCCNC4)ncc3C(F)(F)F)c[nH]c2c1 [Compound 323],–,0.1 to 1 µM
< 0.02 µM,0.2 to 5 µM,0.2 to 5 µM,0.2 to 5 µM,NC(=O)c1cccc(-c2ccc3c(-c4nc(N[C@H]5CCCNC5)ncc4C(F)(F)F)c[nH]c3c2)c1 [Compound 314],–,0.1 to 1 µM
< 0.02 µM,0.2 to 5 µM,0.2 to 5 µM,0.2 to 5 µM,Cc1ccncc1-c1ccc2c(-c3nc(NC4CCCNC4)ncc3C(F)(F)F)c[nH]c2c1 (centres unmarked) [Compound 336],< 0.1 µM,–
0.02 to 0.2 µM,0.2 to 5 µM,0.2 to 5 µM,0.2 to 5 µM,CC(=O)NCc1cccc(-c2ccc3c(-c4nc(N[C@H]5CCCNC5)ncc4C(F)(F)F)c[nH]c3c2)c1 [Compound 338],–,0.1 to 1 µM
< 0.02 µM,0.2 to 5 µM,0.2 to 5 µM,0.2 to 5 µM,"CC(=O)c1ccc2c(-c3nc(N[C@H]4CCCNC4)ncc3C(F)(F)F)c[nH]c2c1 [Compound 359, 1-[3-[2-[[(3S)-3-piperidyl]amino]-5-(trifluoromethyl)pyrimidin-4-yl]-1H-indol-6-yl]ethanone]",< 0.1 µM,–
< 0.02 µM,> 5 µM,> 5 µM,0.2 to 5 µM,Cn1cc(-c2ccc3c(-c4nc(NC5CCCNC5)ncc4C(F)(F)F)c[nH]c3c2)ccc1=O (centres unmarked) [Compound 321],0.1 to 1 µM,–
0.02 to 0.2 µM,> 5 µM,> 5 µM,0.2 to 5 µM,FC(F)(F)c1cnc(N[C@H]2CCCNC2)nc1-c1c[nH]c2cc(-c3ccc4c(c3)OCCO4)ccc12 [Compound 342],–,1 to 5 µM
